Measured values from patent US8236761B2, “C-Met receptor regulation by angiotensin IV (AT4) receptor ligands” (Washington State University Research Foundation, priority 2006, dated 2012).
Non-standard residues stand in square brackets, D forms with d. No end group written: not given here. Nle = CCCC[C@H](N)C(=O)O

Assays:
[1] = test system: urokinase plasminogen activator (uPA); assay: c-Met/HGF urokinase plasminogen activator (uPA) induction in MDCK cells; type: cell-based, canine; conditions: HGF 10 ng/ml, Norleual 10^−10 M and 10^−12 M, 48 hours
Protocol: Thereafter, 10 ng/ml of HGF alone and with the indicated concentrations of Norleual in a 1% FBS DMEM were added to the cells. The cells were cultured under these conditions for four days. On the fourth day, the treatment media was aspirated and replaced with 5 mg/ml of MTT reagent in 0.1 M glycine buffer (Invitrogen). The MTT reagent was incubated with the cells for four hours at 37° C. before adding DMSO to solubilize the cells and record the MTT absorbance on a plate reader. The controls were treated as background and subtracted from all of the treatments to determine the increase in proliferation due solely to HGF treatment. Differences between the treatments were determined using one-way ANOVA with Bonferroni's post-hoc analysis (Prism statistical analysis software). * indicate p<0.05 vs. HGF treatment. N=6, mean+/−SEM. […] Madin-Darby Canine Kidney (MDCK) cells were plated in the wells of a 96 well plate in 100 μl of complete Dulbecco's Modified Eagle's Medium (DMEM). The cells were serum starved for 24 hours to induce quiescence. […] Absorbance of the cleaved substrate was quantitated on a Biotek Synergy HT 2 plate reader according to the manufacturer's instructions. […] The data was analyzed with Prism® (GraphPad, San Diego, Calif.) statistical analysis software. * indicates p<0.01 vs. HGF treatment by Tukey's post-hoc analysis. […]

[2] = test system: neovascularization; assay: Disc angiogenesis assay (subcutaneous sponge disc); type: in vivo, Sprague Dawley rats; conditions: 50 μg per disc core, 14 days, rat
Protocol: FIG. 19 depicts effects on angiogenesis of angiotensin-like factors in a rat in vivo disc angiogenesis assay. Vascularization was quantified by digital image analysis of fixed and stained discs recovered from animals 14 days after subcutaneous implantation of sponge discs containing the indicated compounds.
Disc Angiogenesis Assay. […] A 2 mm core was removed from the center of each disc, saturated with 50 μg of Nle^1-AngIV (SEQ ID NO:41), Nle^1-Leu^3-Ψ(CH2NH2)^3-4-AngIV, Hexamide, or ethanol (control), air dried, then sealed using a fixative (Elvax, DuPont) to allow sustained delivery of the drug treatment into the disc and adjacent tissues. The cores were dried for 30 min, then reinserted into the sponge discs. Impermeable top and bottom covers were prepared by coating 10 mm diameter paper discs with a plexiglass coating, then glued to the top and bottom of the sponge discs, leaving only the rim of the disc available for centripetal cellular penetration. Just prior to implantation, the discs were soaked briefly in sterile saline.
Thirty-two Sprague Dawley female rats (225-275 gr) were used to evaluate four compounds for angiogenic or anti-angiogenic properties using the disc angiogenesis assay. Animals were anesthetized using sodium pentobarbital (40 mg/kg IP). The dorsum was then shaved and aseptically prepped. Each animal received four discs. Animals receiving treated discs were implanted with 2 treated discs and 2 ethanol-soaked control discs. Thus, in a group of 4 animals there were 8 treatment discs, and 8 control discs. These control discs were used to determine whether the ligand had potential systemic effects. Another group of 4 animals received only ethanol-soaked control discs (spontaneous growth controls or SGC discs) for an n=16. However, one SGC was fragmented during processing leaving an n=15.
Four 2 cm cutaneous incisions were made along the dorsum (left thoracic, right thoracolumbar, left thoracolumbar, and right lumbar), and subcutaneous pouches opened in the fascia using blunt dissection. Discs were moistened in sterile saline, inserted deep to the pouch, and the skin closed with sterile surgical staples. Animals were recovered under heat lamps until sternally recumbent, then individually housed for 14 days in an AAALAC accredited facility (water and food ad libitum; 12/12 hour light cycle).
After 14 days the animals were euthanized in a CO2 chamber and the discs were removed. […] Cellular penetration into the discs was quantified using a digital imaging system (Imaging Research Inc., St. Catharines, Ontario, Canada). The total area of the disc was calculated, as was the area containing stained cells. […]
Results. Following staining with toludine blue or Factor VIII, neovascularization was quantitated by densitometry.

[3] = Chronic treatment: body weight, DXA body composition and pathology; type: in vivo, C57BL/6 mice
Protocol: Twenty-four five-week old C57BL/6 male mice were equally and randomly assigned to two groups. One group was assigned as control and the other treated. Treated mice were administered intermuscular (IM) injections of Norleual at 21 μg/kg/day, (40 μl injectable volume) every 48 hours for the duration of one hundred and one days. Injection sites were alternated between left and right gluteus medius. BD Ultra-Fine 3/10 cc insulin syringes were used as delivery apparatus. Mice were housed two per cage and had unlimited access to food and water. Mice were monitored daily for signs of morbidity. Mice were also weighed on a weekly basis. C57/BL6 mice were treated either with vehicle control or with Norleual chronically for 101 days.
To assess body composition of the mice, the Comparative Orthopedic Research Laboratory at the Washington State University Veterinary School was utilized. A Hologic QDR4500A fan beam dual-energy X-ray absorptiometer (DXA, Hologic Inc., Bedford, Mass.) was used to assess the lean body mass (muscle), fat, and bone composition of each mouse on day one hundred one of the experiment. Mice were sacrificed and DXA scans were performed. Due to the volume limitations of the DXA instrument and to permit time for gross pathology, half of the mice were sacrificed and analyzed on day 101. The remaining mice were sacrificed and analyzed 22 hours later. Control and treated mice were split evenly among the two sacrifice episodes. Data were collected and the control group was compared to the Norleual treated group by two-tailed student's t-tests using InStat software (GraphPad, San Diego, Calif.). Figures were created using GraphPad Prism software.
Gross pathology and microscopic pathological evaluation on autopsy tissue were performed in blinded fashion on animals following sacrifice, with attention to multiple organs.

Substance: Nle-Tyr-Leu-ψ-His-Pro-Phe ([Nle]YLHPF; also: reduced peptide bond psi(CH2NH2) between Leu and His) [Norleual]
- c-Met/HGF uPA induction [1]: attenuation
- Effect on angiogenesis in disc assay versus SGC discs [2]: antagonist activity
- Visual inspection of animals versus control ([3]; 101 days treatment): visibly less bulky
- Scale measured weights versus control mice ([3]; IM 21 μg/kg/day every 48 hours, day 101, p=0.0130): significantly lower
- Distribution of lipid vacuoles in the liver relative to control animals ([3]; autopsy tissue, blinded pathology): marked reduction
- DXA measured bone mineral density versus control mice ([3]; day 101): not statistically significant
- Percent fat versus control mice (DXA) ([3]; day 101, p<0.0001): significantly lower
- DXA measured mass versus control mice ([3]; day 101, p=0.0146): significantly lower
- DXA measured area versus control mice ([3]; day 101, p=0.023): significantly lower
- Lean body mass+bone mineral content (BMC) versus control mice (DXA) ([3]; day 101, p=0.18): not significantly different
